# Measurements taken from patent US8648180B2, “Compound Smilaxchinoside F” (Guilin Sanjin Pharmaceuticals Co., Ltd., priority 2010, dated 2014).
# Where “and” joins values, the source holds several entries; their conditions need not be identical. Equal entries are not always repeated.
# System: Human lung cancer cells Spc-A1
# Test: MTT method, anti-proliferation on lung cancer cell line SPC-A1
# Format: cell-based
# Details: for Inhibition rate (%) / OD value: 5Fu 10^−4 mol/L; for OD value: A at 490 nm, x ± s, n = 5
# Procedure: Human lung cancer cells Spc-A1 (hereinafter referred to as SPC), is purchased from Wuhan Cell Collection Center (cell bank of China Center for Type CultureCollection).
# The tumor cells are placed in the RPMI-1640 complete medium including 10% fetal calf serum and are cultured at 37° C. under 5% CO2 incubator. When the cell growth reaches the logarithmic phase (approximately 80% integration), cells are subcultured. The experiments are divided into negative control group (RPMI-1640), positive drug group (5Fu, 10^−4 mol·L^−1) and reagent group of Smilaxchinoside F at different concentrations, which are prepared by Guilin Sanjin Pharmaceutical Co., Ltd, in accordance with example 1 of the present invention.
# 5×10^7·L^−1 cells at logarithmic phase are seeded in 96-well plates, each well 180 μL. After culturing for 24 h, medicine is added, each well 20 μL, five parallel wells for each group. On 4 hours before the end of culture, 20 μL of 5 g·L^−1 MTT solution is added to the each well. After the end of the culture (48 h and 72 h), the supernatant is discarded. 150 μL of DMSO is added to each wells; the optical density (A value) of each well is detected by a microplate reader at 490 nm; the tumor suppression percentage is calculated.
compound,measurement,setting,value
O=c1[nH]cc(F)c(=O)[nH]1 [5Fu],"Effect on SPA (lung cancer) cell proliferation in vitro, in words",,significant anti-tumor effect
same,Inhibition rate (%),48 h,39.4% and 39.37%
same,OD value,48 h,0.372 ± 0.031
same,Inhibition rate (%),72 h,59.6% and 59.61%
same,OD value,72 h,0.295 ± 0.026
